Here are results for 5 compounds from paper PMC6943629, “Binding of Gold(III) Porphyrin by the Pro-metastatic Regulatory Protein Human Galectin-3” (Molecules, 2019).

As a reminder, the Kd is the constant that tells how readily two partners part at equilibrium.

Where two headings read alike, the source gives them in different places.

In assay [1] the target is T1, full-length Gal3 (Gal3 FL) (Homo sapiens, UniProt P17931).
T1 construct: Recombinant human galectin-3 (Gal3, 26 kDa, full-length galectin-3 or Gal3 FL); made in house
T1 sequence (P17931 whole entry): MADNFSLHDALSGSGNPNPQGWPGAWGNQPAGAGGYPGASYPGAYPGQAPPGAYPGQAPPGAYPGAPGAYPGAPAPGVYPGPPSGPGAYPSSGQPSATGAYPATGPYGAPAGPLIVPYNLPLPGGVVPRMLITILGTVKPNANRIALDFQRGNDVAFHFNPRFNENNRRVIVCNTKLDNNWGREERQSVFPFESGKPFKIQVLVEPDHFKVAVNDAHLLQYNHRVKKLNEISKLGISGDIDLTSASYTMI
In words: Microscale thermophoresis (MST), Gal3 FL. It is filed as binding. From the text: Microscale thermophoresis (MST) is a very sensitive, immobilization-free interaction technique that is based on the speed of migration away from a central point in the capillary that is hit by an infra-red laser at time 0 (Figure 1).
Microscale thermophoresis (MST) is a technique to quantify biomolecular interactions by measuring the directed movement of molecules in a microscopic temperature gradient induced by an infrared laser. The directed movement of molecules in thin capillaries was detected and quantified by means of a red-light fluorophore (NT-647-NHS, with excitation maximum at 647 nm and emission maximum at 670 nm) covalently linked to Gal3 proteins. For labelling, we used two times the concentration of the protein (16 μM Gal3 FL, 43 μM Gal3 CRD) for the fluorophore. Removal of excess fluorphore was combined with buffer exchange into 20 mM Hepes, pH 7.4 with 150 mM NaCl and 0.05% Tween-20.
A two-fold dilution series of ligand concentrations was established ranging from 239 μM to […], with a constant concentration of 4 μM Gal3 FL and 22 μM Gal3 CRD. The samples were loaded into standard glass capillaries and readings were performed with the red light of a Monolith NT.115, with LED power setting of 20% and an MST power setting of 40%. […] The same procedure was repeated for Gal3 CRD and using roscovitine as a ligand. The data were analyzed using the MO Affinity Analysis software v2.2.4.
(In general: In MST a laser heats a spot of the sample, and binding alters the fluorescence response.)

For assay [2], the target named is Gal3. The conditions noted are these: cited from earlier work.
Assay [3] has as its target T2, Gal3 CRD (Homo sapiens, UniProt P17931).
T2 construct: The carbohydrate recognition domain (Pro106-Ile250) of human Gal3 (Gal3 CRD); His-tag; made in house; host or cells: Escherichia coli BL21(DE3)
More on the design: method as in PMID 31094416. The conditions noted are these: ref 46; cited from earlier work.

Assay [4] concerns the target T2, Gal3 CRD. Nature of the assay: MST capillary scan, fit to initial fluorescence, Gal3 CRD. It is filed as binding. From the text: (§1) The large and unwanted initial fluorescence changes (Figure 1D) are unlikely to originate from Trp181 near the lactose-binding site of Gal3 CRD, because the MST was run using red fluorescence excitation and emission wavelengths. Also, although Gal3 FL has three tryptophans (Trp22, Trp26 and Trp181) instead of a single one (Trp181) in Gal3 CRD, it appears less affected (Figure 1A versus D). Therefore, there is more likely an involvement of NT-647-NHS-labelled lysine residues near the binding site of Au^3+TTPS. This involvement of labelled lysines enabled the fit based on the initial fluorescence data (Figure 2). […] Therefore, we initiated tryptophan fluorescence spectroscopy measurements (TFS).
(§2) Microscale thermophoresis (MST) is a technique to quantify biomolecular interactions by measuring the directed movement of molecules in a microscopic temperature gradient induced by an infrared laser. The directed movement of molecules in thin capillaries was detected and quantified by means of a red-light fluorophore (NT-647-NHS, with excitation maximum at 647 nm and emission maximum at 670 nm) covalently linked to Gal3 proteins. […]
(§3) A two-fold dilution series of ligand concentrations was established ranging from 239 μM to […], with a constant concentration of 4 μM Gal3 FL and 22 μM Gal3 CRD. […] The data were analyzed using the MO Affinity Analysis software v2.2.4.

Assay [5] has as its target T3, Gal3 FL (Homo sapiens, UniProt P17931).
T3 construct: Recombinant human galectin-3 (Gal3, 26 kDa, full-length galectin-3 or Gal3 FL); made in house
Nature of the assay: Isothermal titration calorimetry (ITC), Gal3 FL. It is filed as binding. Particulars: 22 °C. From the text:
We used isothermal titration calorimetry (ITC), which is a molecular interaction technique ideal for the reliable determination of stoichiometric ratios in the protein soluble state. […] The reaction is exothermic and enthalpy driven with a heat release of −5363 ± 196.4 cal/mol, indicating a substantial number of non-covalent bonding during complex formation. Moreover, the interaction also profits from a significant entropic contribution of 1956 cal/mol.
A VP-ITC MicroCal instrument (Malvern Panalytical Ltd, Malvern, UK) with cell volume of 1.4253 mL was used at 22 °C for the measurement of the stoichiometric ratio and the enthalpy/entropy contributions to the binding of gold prophyrin to Gal3 FL. Prior to the experiment, the Gal3 FL protein was dialyzed extensively against 20 mM Hepes at pH 7.4 and 150 mM NaCl, the buffer used for the experiment.

For assay [6], the target named is T2, Gal3 CRD. Nature of the assay: Tryptophan fluorescence spectroscopy (TFS), Gal3 CRD. It counts as binding. The conditions noted are these: 10 μM Gal3 CRD; 25 °C; pH 7.4; read-out: KD (TFS, non-linear regression). From the text:
(§4) The formation of Gal3–Au^3+TTPS complexes can be followed by the changes in the intrinsic or tryptophan fluorescence spectroscopy. Binding of the metal-based drug to Gal3 FL caused a red shift of the maximum emission wavelength of about 9 nm (339 nm to 348 nm), as well as a decrease in fluorescence intensity. This is indicative of indole side chains of Trp residues being exposed on the protein surface. […] The hyperbolic nature of the binding curves of gold porphyrin to of Gal3 FL and Gal3 CRD is indicative of the presence of a single binding site for the ligand.
(§5) Figure 3 TFS measurements of complex formation with Gal3. […] The data points were plotted as means ± standard error of the mean for three independent experimental data sets.
(§6) Tryptophan fluorescence spectroscopy (TFS) was performed on a Shimadzu spectrofluorometer (Shimadzu, Kyoto, Japan). […] Total fluorescence was calculated after normalization of the fluorescence spectra and corrected for dilution. In order to account for the inner filter and the self-absorption effects, the experiments were always carried out on samples with absorbance (OD280nm) less than 0.05. Absorbance was measured using a spectrophotometer (Beckman, Brea, CA, USA). All measurements were performed at 25 °C, with the temperature of the samples determined in the cuvette with an accuracy of ± 0.2 °C.

In assay [7] the target is T3, Gal3 FL. In words: Tryptophan fluorescence spectroscopy (TFS), Gal3 FL. It is filed as binding. The conditions noted are these: 2 μM Gal3 FL; 25 °C; pH 7.4; read-out: KD (TFS, non-linear regression).
Text: as §4, §5, §6

The target of assay [8] is T3, Gal3 FL. In words: MST capillary scan, fit to initial fluorescence, Gal3 FL. Particulars: capillary scan values, time point 0, read-out: KD from fit of initial (before thermophoresis) fluorescence. It counts as binding.
Text: as §1, §2, §3

Assay [9] concerns the target T2, Gal3 CRD. In words: Isothermal titration calorimetry (ITC), Gal3 CRD. It is filed as binding. The conditions noted are these: Gal3 CRD 32.67 μM, also at twice higher concentrations. For orientation: In ITC the heat of successive injections is recorded.

T2 sequence (P17931 106-250): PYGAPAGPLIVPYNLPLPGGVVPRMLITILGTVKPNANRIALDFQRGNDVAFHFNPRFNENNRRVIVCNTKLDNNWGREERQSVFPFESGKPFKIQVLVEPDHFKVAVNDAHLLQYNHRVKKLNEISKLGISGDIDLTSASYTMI
T3 sequence (P17931 whole entry): as the sequence (P17931 whole entry) above

Consider `CC[C@H](CO)Nc1nc(NCc2ccccc2)c2ncn(C(C)C)c2n1` [roscovitine, reference compound], for which the “affinity between Gal3 FL and ligand (MST)” value in [1] (Gal3 FL, MST) was “no affinity”.
For the compound `CC(=O)N[C@H]1C(O)O[C@H](CO)[C@@H](O[C@@H]2O[C@H](CO)[C@H](O)[C@H](O)[C@H]2O)[C@@H]1O` (some centres unmarked) [N-acetyllactosamine], the Kd in assay [2] (ref 43) was 25 µM; in assay [2] (ref 44), 28 µM; in assay [2] (ref 45), 112 µM; in [2] (ref 46), 118 µM.
Regarding “CD146: cluster of differentiation 146, melanoma cell adhesion molecule, cell surface glycoprotein”, the “affinity for Gal3 CRD” value in [3] is listed as “unmeasurable”.
Take `OC[C@H]1O[C@@H](O[C@H]2[C@H](O)[C@@H](O)C(O)O[C@@H]2CO)[C@H](O)[C@@H](O)[C@H]1O` (mixture of isomers) [lactose]: in assay [2] (ref 42), the “inhibition of Zn^2+TTPS binding to Gal3” value was “did not inhibit”.
For the compound “5,10,15,20-Tetrakis(4-sulfonatophenyl)-porphyrin-Au(III)chloride [Au^3+TPPS]”, the Kd is 25.9 ± 0.65 µM in [4] (Gal3 CRD, capillary scan values, time point 0, read-out: KD from fit of initial (before thermophoresis) fluorescence); 3.78 ± 0.27 µM in assay [5] (20 mM Hepes pH 7.4, 150 mM NaCl, read-out: equilibrium dissociation constant KD (ITC)); 22.7 ± 5.6 µM in [6]; 2.6 ± 0.6 µM in assay [7]; 5.83 ± 0.65 µM in [8]; 2.84 ± 1.03 µM in assay [1] (Gal3 FL labelled with NT-647-NHS, 4 μM Gal3 FL, thermophoresis read-out, read-out: KD (MST curves)). Besides, the “weaker binding of truncated Gal3 (CRD) versus Gal3 FL” value in assay [4] (comparison of initial fluorescence fits) is listed as “at Least 5 fold”. Further, the “change in Gibbs free energy (ΔG) (ITC)” value in [5] was -7.326 kcal/mol. Also, in assay [5], the “entropic contribution (ITC)” value amounted to 1.956 kcal/mol. In assay [5], the “heat release (enthalpy) (ITC)” value was -5.363 ± 0.1964 kcal/mol. Also, in [5], the “stoichiometry (ITC)” value is 1.02 ± 0.03 sites. For the same compound, the “binding after SDS denaturation of Gal3 FL (SD test)” value in assay [1] (Gal3 FL denatured with 4% SDS, 40 mM DTT, 95 °C, same concentration series) is on record as “without observing binding”. Besides, the “ITC titration result with Gal3 CRD” value in [9] is “no measurable results”.
